Source: US5624936A, “Inhibitors of farnesyl-protein transferase” (Merck & Co., Inc., priority 1996, dated 1997)
Where a name gives a salt, the structure may show the parent alone.

Biological target: T1, human FPTase (Homo sapiens, UniProt P49354+P49356)
T1 construct: made in house
Test: In vitro inhibition of human farnesyl-protein transferase (FPTase)
Assay type: biochemical
Settings: 100 nM Ras-CVIM substrate, [3H]-FPP, 30 min; read-out: IC50, inhibitory activity against human FPTase

Row | IC50 [µM] | Structure (SMILES)
1 | < 10 | CC[C@H](C)[C@@H](CN1Cc2ccccc2C[C@H]1C(=O)N[C@@H](CCSC)C(=O)O)NC(=O)Cc1c[nH]cn1 [Examples 1. Step G, N-[(1H-imidazol-4-ylacetyl)-2(S)-amino-3(S)-methylpentyl]-1,2,3,4-tetrahydro-3(S)-isoquinolinecarbonyl-methionine trifluoroacetate]
2 | < 10 | CC[C@H](C)[C@@H](CN1Cc2ccccc2C[C@H]1C(=O)N[C@@H](CCSC)C(=O)O)NC(=O)[C@@H]1CCC(=O)N1 [Example 3, Step B, N-[L-Pyroglutamyl-2(S)-amino-3(S)-methylpentyl]-1,2,3,4-tetrahydro-3(S)-isoquinolinecarbonyl-methionine trifluoroacetate]
